The values below come from patent publication US8178699B2, “Modulators of CCR9 receptor and methods of use thereof” (Pfizer Inc., priority 2008, dated 2012).

The target of the assay is T1, human CCR9 receptor (Homo sapiens, UniProt P51686).
T1 construct: expressed in transfected cells
T1 sequence (P51686 1-369): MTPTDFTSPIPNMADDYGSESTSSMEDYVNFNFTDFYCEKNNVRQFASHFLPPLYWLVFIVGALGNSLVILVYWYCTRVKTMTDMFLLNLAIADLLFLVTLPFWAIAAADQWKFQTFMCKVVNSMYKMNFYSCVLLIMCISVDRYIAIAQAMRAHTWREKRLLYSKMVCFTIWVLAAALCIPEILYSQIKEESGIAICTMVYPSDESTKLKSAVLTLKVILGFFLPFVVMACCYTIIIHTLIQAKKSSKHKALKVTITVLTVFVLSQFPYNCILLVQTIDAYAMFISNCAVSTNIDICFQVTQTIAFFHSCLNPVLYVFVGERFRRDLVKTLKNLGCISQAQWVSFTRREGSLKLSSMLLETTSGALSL
The experiment in a line: CCR9 FLIPR/FlexStation Assay (inhibition of TECK induced calcium mobilization). Conditions: CCR9 antagonist activity; TECK induced calcium mobilization in CCR9-Flp-CHO cells stably over expressing human CCR9; rhTECK at EC70; read-out: Binding IC50. It is filed as cell-based. The source says:
Exemplary methods are described in US Publication Nos. US2004/0180892 and US2005/0049286, which are incorporated herein by reference. An exemplary assay for determining CCR9 antagonist activity of the compounds provided herein is CCR9 FLIPR/FlexStation Assay. In certain embodiments, the following protocol is used for the assay:
CCR9 FLIPR/FlexStation Assay Protocol
Calcium assay in FLIPR/FlexStation determines inhibitors of TECK induced calcium mobilization in CCR9-Flp-CHO cells that stably over express human CCR9 receptor. CCR9-Flp-CHO cells are seeded at 25,000 cells/well in a clear bottom, black wall 96-well plate (Greiner #655090) one day prior to assay. Cells are grown in a tissue culture incubator at 37° C. with 5% CO2 for 18 to 24 hours.
Wash buffer and dye loading buffer are prepared fresh each time the assay is performed. Wash buffer is prepared according to the following protocol: 20 ml 10×HBSS (Invitrogen Gibco #14065-056), 4 ml 1M HEPES (Sigma H3784), 174 ml sterile deionized water; then add 140 mg probenecid (Sigma P8761) dissolved in 2 ml 1M NaOH (Fisher S318) to solution and pH to 7.4. This wash buffer contains 1×HBSS, 20 mM HEPES and 2.5 mM probenecid. For one 96-well plate, dye loading buffer is prepared as following: 11 ml wash buffer, 44 μl Fluo-4/pluoronic acid mix (prepared from 22 μL aliquot of 2 mM Fluo-4 (Molecular Probes F14202, 1 mg/tube)+22 μl 20% pluronic F-127 (Molecular Probes P3000MP).
Cells are loaded with dye according to the protocol below:
1. Prepare wash buffer with 1×HBSS/HEPES at room temperature
2. Prepare loading buffer (keep in dark)
3. Aspirate culture media and wash with 100 μl wash buffer per well×1
4. Add 100 μl dye loading buffer to each well
5. Incubate at 37° C. for 30 minutes
6. Aspirate loading buffer
7. Wash with 100 μl wash buffer per well×3
8. Add 100 μl wash buffer per well
9. Incubate at 37° C. for 30 minutes
10. Assay plate with FLIPR or FlexStation
10 mM stock compounds in DMSO are prepared and diluted in DMSO to 1 mM. Compounds are diluted in wash buffer to make 8 point series dilutions containing same final concentration of DMSO (1%). Compounds are tested in duplicate wells for each point. Ligand rhTECK (R&D Systems 334-TK) was diluted to 6× of its EC70 with wash buffer. Appropriate amount of 6× ligand is added to each well. Data is analyzed using XLfit3 software to calculate IC50 value of antagonist activity for each compound.
CCR9 antagonist activity of exemplary compounds was determined using CCR9 FLIPR/FlexStation Assay as described in Section 4.4 and is provided in Table 1 below. The IC50 for the compounds are represented as follows: A≦100 nM; B>100-500 nM; C>500 nM.
On the technique in general: Calcium assays in cells follow changes in intracellular calcium, usually with a dye or a luminescent sensor.

Where a name gives a salt, the structure may show the parent alone.

As to `CC(C)(C)c1ccc(S(=O)(=O)Nc2ccsc2C(=O)O)c(Br)c1` [Example 1, 3-(2-bromo-4-tert-butylphenylsulfonamido)thiophene-2-carboxylic acid, sodium salt], the IC50 was at most 100 nM.

Take `CC(C)(C)c1ccc(S(=O)(=O)Nc2ccsc2C(=O)O)c(-c2ccc(Cl)cc2)c1` [Example 2, 3-(5-tert-butyl-4′-chlorobiphenyl-2-ylsulfonamido)thiophene-2-carboxylic acid, disodium salt]: the IC50 was over 500 nM.

Consider `CC(C)(C)c1ccc(S(=O)(=O)Nc2ccsc2C(=O)O)c(N2CCOCC2)c1` [Example 3, 3-[4-tert-butyl-2-(morpholin-4-yl)phenylsulfonamido]thiophene-2-carboxylic acid], for which the concentration for half-maximal inhibition (IC50) was in the range of 100 to 500 nM. As for `CN(C)c1ccc(-c2cc(C(C)(C)C)ccc2S(=O)(=O)Nc2ccsc2C(=O)O)cc1` [Example 4, 3-[5-tert-butyl-4′-(dimethylamino)biphenyl-2-ylsulfonamido]thiophene-2-carboxylic acid, disodium salt], the figure is over 500 nM.

Turning to `CC(C)(C)c1ccc(S(=O)(=O)Nc2ccsc2C(=O)O)c(-c2cncnc2)c1` [Example 5, 3-[4-tert-butyl-2-(pyrimidin-5-yl)phenylsulfonamido]thiophene-2-carboxylic acid, disodium salt], the IC50 is over 500 nM.

Turning to `CC(C)(C)c1ccc(S(=O)(=O)Nc2ccsc2C(=O)O)c(Cl)c1` [Example 6, 3-(4-tert-Butyl-2-chlorophenylsulfonamido)thiophene-2-carboxylic acid, disodium salt], the IC50 is at most 100 nM. `CC(C)(C)c1ccc(S(=O)(=O)Nc2ccsc2C(=O)O)c(/C=C/c2ccccc2)c1` [Example 7, 3-(4-tert-butyl-2-styrylphenylsulfonamido)thiophene-2-carboxylic acid, disodium salt]: the IC50 lay in the range of 100 to 500 nM. `COc1cc(C(C)(C)C)ccc1S(=O)(=O)Nc1ccsc1C(=O)O` [Example 8, 3-(tert-butyl-2-methoxyphenylsulfonamido)thiophene-2-carboxylic acid, disodium salt]: the IC50 is at most 100 nM. Under `CC(C)(C)c1ccc(S(=O)(=O)Nc2ccsc2C(=O)O)c(O)c1` [Example 9, 3-(4-tert-butyl-2-hydroxyphenylsulfonamido)thiophene-2-carboxylic acid, trisodium salt] stands 100 to 500 nM.

For `CC(C)(C)c1ccc(S(=O)(=O)Nc2ccsc2C(=O)O)c(C#N)c1` [Example 10, 3-(4-tert-butyl-2-cyanophenylsulfonamido)thiophene-2-carboxylic acid, disodium salt], the IC50 was at most 100 nM.

For the molecule `CC(C)(C)c1ccc(S(=O)(=O)Nc2ccsc2C(=O)O)c(CCc2ccccc2)c1` [Example 11, 3-(4-tert-butyl-2-phenethylphenylsulfonamido)thiophene-2-carboxylic acid, disodium salt], the IC50 is at most 100 nM. Regarding `CC(=O)Oc1cc(C(C)(C)C)ccc1S(=O)(=O)Nc1ccsc1C(=O)O` [Example 12, 3-(2-acetoxy-4-tert-butylphenylsulfonamido)thiophene-2-carboxylic acid, disodium salt], the half-maximal inhibitory concentration (IC50) is 100 to 500 nM. Take `Cc1cc(C(C)(C)C)ccc1S(=O)(=O)Nc1ccsc1C(=O)O` [Example 13, 3-(4-tert-butyl-2-methylphenylsulfonamido)thiophene-2-carboxylic acid, disodium salt]: the IC50 is at most 100 nM. Under `CCC(C)c1ccc(S(=O)(=O)Nc2ccsc2C(=O)O)cc1` (stereo not drawn) [Example 14, 3-(4-sec-butylphenylsulfonamido)thiophene-2-carboxylic acid, disodium salt] stands at most 100 nM. As for `CN(c1ccsc1C(=O)O)S(=O)(=O)c1ccc(C(C)(C)C)cc1` [Example 15, 3-(4-tert-butyl-N-methylphenylsulfonamido)thiophene-2-carboxylic acid, sodium salt], the figure is over 500 nM.

Take `CC(C)(C)c1ccc(S(=O)(=O)Nc2ccsc2C(=O)O)cc1` [Example 16, 3-(4-tert-butylphenylsulfonamido)thiophene-2-carboxylic acid, disodium salt]: the IC50 is at most 100 nM.

Take `O=C(O)c1sccc1NS(=O)(=O)c1ccc2ccccc2c1` [Example 17, 3-(Naphthalene-2-sulfonamido)thiophene-2-carboxylic acid, disodium salt]: the IC50 is over 500 nM. As for `CCC(C)(C)c1ccc(S(=O)(=O)Nc2ccsc2C(=O)O)cc1` [Example 18, 3-(4-(1,1-Dimethylpropyl)phenylsulfonamido)thiophene-2-carboxylic acid, sodium salt], the figure is 100 to 500 nM; as for `CCCCc1ccc(S(=O)(=O)Nc2ccsc2C(=O)O)c(Cl)c1` [Example 19, 3-(4-butyl-2-chlorophenylsulfonamido)thiophene-2-carboxylic acid, disodium salt], at most 100 nM; as for `O=C(O)c1sccc1NS(=O)(=O)c1ccc(Br)cc1` [Example 20, 3-(4-bromophenylsulfonamido)thiophene-2-carboxylic acid, disodium salt], over 500 nM. `O=C(O)c1sccc1NS(=O)(=O)c1ccc2c(c1)CCCC2` [Example 21, 3-(5,6,7,8-tetrahydronaphthalene-2-sulfonamido)thiophene-2-carboxylic acid, disodium salt]: the IC50 lay in the range of 100 to 500 nM. In the case of `Cc1ccccc1-c1cccc(S(=O)(=O)Nc2ccsc2C(=O)O)c1` [Example 22, 3-(2′-methylbiphenyl-3-ylsulfonamido)thiophene-2-carboxylic acid, disodium salt], the half-inhibitory concentration (IC50) was over 500 nM. As for `O=C(O)c1sccc1NS(=O)(=O)c1ccc(N2CCOCC2)cc1` [Example 23, 3-[(4-morpholin-4-yl)phenylsulfonamido]thiophene-2-carboxylic acid, disodium salt], the figure is over 500 nM; as for `CC(C)(C)c1ccc(S(=O)(=O)Nc2c(C(=O)O)sc3ccccc23)cc1` [Example 24, 3-(4-tert-butylphenylsulfonamido)benzo[b]thiophene-2-carboxylic acid, disodium salt], 100 to 500 nM.

Take `CC(C)(C)c1ccc(S(=O)(=O)Nc2c(C(=O)O)sc3ccc(F)cc23)cc1` [Example 25, 3-(4-tert-butylphenylsulfonamido)-5-fluorobenzo[b]thiophene-2-carboxylic acid, disodium salt]: the IC50 was over 500 nM. Under `CC(C)(C)c1ccc(S(=O)(=O)Nc2c(C(=O)O)sc3ncccc23)cc1` [Example 26, 3-(4-tert-butylphenylsulfonamido)thieno[2,3-b]pyridine-2-carboxylic acid, disodium salt] stands over 500 nM; under `O=C(O)c1sccc1NS(=O)(=O)c1ccc(C(F)(F)F)cc1Br` [Example 27, 3-[2-bromo-4-(trifluoromethyl)phenylsulfonamido]thiophene-2-carboxylic acid, disodium salt], at most 100 nM. As for `CC(C)(C)c1ccc(S(=O)(=O)Nc2ccsc2C(=O)O)c(Oc2ccccc2)c1` [Example 28, 3-(4-tert-butyl-2-phenoxyphenylsulfonamido)thiophene-2-carboxylic acid, disodium salt], the figure is over 500 nM; as for `CC(C)(C)c1ccc(S(=O)(=O)Nc2ccsc2C(=O)O)c(F)c1` [Example 29, 3-(4-tert-butyl-2-fluorophenylsulfonamido)thiophene-2-carboxylic acid, disodium salt], at most 100 nM. As for `CC(C)(C)c1ccc(S(=O)(=O)Nc2ccsc2C(=O)O)c(/C=C/C(=O)O)c1` [Example 30, 3-[4-tert-butyl-2-(2-carboxyvinyl)phenylsulfonamido]thiophene-2-carboxylic acid, trisodium salt], the figure is over 500 nM.

For orientation: IC50 means the concentration at which inhibition is half-maximal.
